Test results as given in ChEMBL document CHEMBL5532755, “Unveiling the potent activity of a synthetic ion transporter against multidrug-resistant Gram-positive bacteria and biofilms” (RSC Med Chem, 2024).
Values after ≈ are worked out from the molar mass of the structure shown. Active and inactive are the calls of the source. The rule behind the calls is not given here.

Columns and labels:
Cell membrane [1] = test: Induction of membrane depolarization in methicillin-resistant Staphylococcus aureus ATCC 33591 assessed as depolarized bacterial cells by measuring red to green fluorescence ratio at 10 to 15 ug/ml incubated for 4 hrs by DiOC2(3) dye based flow cytometry analysis; format: cell membranes; details: dose 10-15 µg/ml
Cell membrane [2] = test: Induction of membrane depolarization in methicillin-resistant Staphylococcus aureus ATCC 33591 assessed as depolarized bacterial cells by measuring red fluorescence at 10 to 15 ug/ml incubated for 4 hrs by DiOC2(3) dye based flow cytometry analysis (reference value: 63.8%); format: cell membranes; details: dose 10-15 µg/ml
Cell membrane [3] = test: Induction of membrane depolarization in methicillin-resistant Staphylococcus aureus ATCC 33591 assessed as depolarized bacterial cells by measuring green fluorescence at 10 to 15 ug/ml incubated for 4 hrs by DiOC2(3) dye based flow cytometry analysis (reference value: 27.3%); format: cell membranes; details: dose 10-15 µg/ml
Escherichia coli = test: Antibacterial activity against Escherichia coli MTCC 443 incubated for 16 to 18 hrs by broth dilution method; format: functional; details: time 16-18 hrs
Staphylococcus aureus [4] = test: Induction of ROS generation in methicillin-resistant Staphylococcus aureus ATCC 33591 assessed as increase in fluorescence intensity by DCFH-DA dye based flow cytometry analysis; format: functional, organism-based; details: dose 8-16 µg/ml
Staphylococcus aureus [5] = test: Antibacterial activity against methicillin-resistant Staphylococcus aureus ATCC 33591 incubated for 16 to 18 hrs by broth dilution method; format: functional; details: time 16-18 hrs
[6] = Selectivity index, ratio of HC50 for hemolytic activity in human RBC to MIC for antibacterial activity against methicillin-resistant Staphylococcus aureus R3889; format: toxicity; details: human red blood cells (erythrocytes), read-out: Selectivity Index
Staphylococcus aureus [7] = test: Bactericidal activity against vancomycin-resistant Staphylococcus aureus 1 assessed as log reduction in bacterial titer at 8 ug/ml observed after 12 hrs by time killing analysis; format: functional; details: dose 8 µg/ml
Staphylococcus aureus [8] = test: Antibiofilm activity against methicillin-resistant Staphylococcus aureus ATCC 33591 assessed as reduction in biofilm biomass at 64 ug/ml incubated for 24 hrs by crystal violet staining based analysis relative to control; format: functional; parameters: scale not given: the % may be the effect or the level left; details: dose 64 µg/ml
Staphylococcus aureus [9] = test: Antibacterial activity against methicillin-resistant Staphylococcus aureus R3889 incubated for 16 to 18 hrs by broth dilution method; format: functional; details: time 16-18 hrs
Cell membrane [10] = test: Induction of inner membrane permeabilization in methicillin-resistant Staphylococcus aureus ATCC 33591 assessed as appearance of dead bacterial cells with compromised membrane integrity at 16 ug/ml incubated for 4 hrs by Syto-9/PI staining based confocal microscopy; format: cell membranes; details: dose 16.0 µg/ml
[11] = Selectivity index, ratio of HC50 for hemolytic activity in human RBC to MIC for antibacterial activity against Staphylococcus epidermidis; format: toxicity; details: human red blood cells (erythrocytes), read-out: Selectivity Index
Staphylococcus aureus [12] = test: Antibacterial activity against methicillin-resistant Staphylococcus aureus R3545 incubated for 16 to 18 hrs by broth dilution method; format: functional; details: time 16-18 hrs
Staphylococcus aureus [13] = test: Bactericidal activity against methicillin-resistant Staphylococcus aureus ATCC 33591 assessed as eradication of bacterial cells at 8 ug/ml observed within 12 hrs by time killing analysis relative to control; format: functional; details: dose 8 µg/ml
[14] = Cytotoxicity against MDCK cells assessed as cell viability incubated for 24 hrs by alamar blue staining based assay; format: toxicity, Canis lupus familiaris; details: dog
[15] = Hemolytic activity in human RBC at 0.5 to 2 ug/ml incubated for 1 hr by microplate reader method relative to control; format: toxicity, cell-based, Erythrocyte; details: human red blood cells (erythrocytes), at 0.5 to 2 µg/mL, dose 0.5-2 µg/ml, read-out: Activity
Staphylococcus aureus [16] = test: Antibacterial activity against methicillin-resistant Staphylococcus aureus R3890 incubated for 16 to 18 hrs by broth dilution method; format: functional; details: time 16-18 hrs
Staphylococcus aureus [17] = test: Antibiofilm activity against methicillin-resistant Staphylococcus aureus ATCC 33591 assessed as log reduction in bacterial burden in biofilm at 64 ug/ml incubated for 18 hrs; format: functional; details: dose 64 µg/ml
Enterococcus faecium [18] = test: Antibacterial activity against Enterococcus faecium ATCC 19634 incubated for 16 to 18 hrs by broth dilution method; format: functional; details: time 16-18 hrs
Enterococcus faecium [19] = test: Antibacterial activity against vancomycin-resistant Enterococcus faecium 909 incubated for 16 to 18 hrs by broth dilution method; format: functional; details: time 16-18 hrs
[20] = test system: Staphylococcus epidermidis; test: Antibacterial activity against Staphylococcus epidermidis MTCC 3615 incubated for 16 to 18 hrs by broth dilution method; format: functional; details: time 16-18 hrs
Staphylococcus aureus [21] = test: Antibacterial activity against vancomycin-resistant Staphylococcus aureus 1 incubated for 16 to 18 hrs by broth dilution method; format: functional; details: time 16-18 hrs
Cell membrane [22] = test: Induction of cytoplasmic membrane depolarization in vancomycin-resistant Staphylococcus aureus 1 assessed as increase in fluorescence intensity and measured after 24 min by DiSC3-5 dye based fluorescence method; details: dose 4-16 µg/ml
[23] = Selectivity index, ratio of HC50 for hemolytic activity in human RBC to MIC for antibacterial activity against vancomycin-resistant Staphylococcus aureus 1; format: toxicity; details: human red blood cells (erythrocytes), read-out: Selectivity Index
[24] = Selectivity index, ratio of HC50 for hemolytic activity in human RBC to MIC for antibacterial activity against vancomycin-resistant Staphylococcus aureus 4; format: toxicity; details: human red blood cells (erythrocytes), read-out: Selectivity Index
[25] = Selectivity index, ratio of HC50 for hemolytic activity in human RBC to MIC for antibacterial activity against vancomycin-resistant Enterococcus faecium 903; format: toxicity; details: human red blood cells (erythrocytes), read-out: Selectivity Index
[26] = Selectivity index, ratio of HC50 for hemolytic activity in human RBC to MIC for antibacterial activity against methicillin-resistant Staphylococcus aureus R3545; format: toxicity; details: human red blood cells (erythrocytes), read-out: Selectivity Index
Staphylococcus aureus [27] = test: Antibiofilm activity against methicillin-resistant Staphylococcus aureus ATCC 33591 assessed as reduction in biofilm biomass at 32 ug/ml incubated for 24 hrs by crystal violet staining based analysis relative to control; format: functional; parameters: scale not given: the % may be the effect or the level left; details: dose 32 µg/ml
[28] = Selectivity index, ratio of HC50 for hemolytic activity in human RBC to MIC for antibacterial activity against Enterococcus faecium; format: toxicity; details: human red blood cells (erythrocytes), read-out: Selectivity Index
Staphylococcus aureus [29] = test: Antibacterial activity against Staphylococcus aureus MTCC 737 incubated for 16 to 18 hrs by broth dilution method; format: functional; details: time 16-18 hrs
Staphylococcus aureus [30] = test: Bactericidal activity against methicillin-resistant Staphylococcus aureus ATCC 33591 assessed as log reduction in bacterial titer at 8 ug/ml observed within 12 hrs by time killing analysis; format: functional; details: dose 8 µg/ml
Cell membrane [31] = test: Induction of membrane depolarization in methicillin-resistant Staphylococcus aureus ATCC 33591 assessed as depolarized bacterial cells by measuring green fluorescence at 8 ug/ml incubated for 4 hrs by DiOC2(3) dye based flow cytometry analysis (reference value: 27.3%); format: cell membranes; details: dose 8.0 µg/ml
Staphylococcus aureus [32] = test: Antibiofilm activity against methicillin-resistant Staphylococcus aureus ATCC 33591 assessed as eradication of bacteria by measuring colocalization of green and red cells at 64 ug/ml by Syto-9/PI staining based confocal laser scanning microscopy; format: functional, organism-based; details: dose 64.0 µg/ml
Staphylococcus aureus [33] = test: Antibiofilm activity against methicillin-resistant Staphylococcus aureus ATCC 33591 assessed as biofilm thickness at 64 ug/ml by Syto-9/PI staining based confocal laser scanning microscopy; format: functional; details: dose 64 µg/ml
[34] = Selectivity index, ratio of HC50 for hemolytic activity in human RBC to MIC for antibacterial activity against vancomycin-resistant Enterococcus faecium 909; format: toxicity; details: human red blood cells (erythrocytes), read-out: Selectivity Index
Cell membrane [35] = test: Induction of membrane depolarization in methicillin-resistant Staphylococcus aureus ATCC 33591 assessed as depolarized bacterial cells by measuring red to green fluorescence ratio at 8 ug/ml incubated for 4 hrs by DiOC2(3) dye based flow cytometry analysis; format: cell membranes; details: dose 8.0 µg/ml
Cell membrane [36] = test: Induction of membrane depolarization in methicillin-resistant Staphylococcus aureus ATCC 33591 assessed as depolarized bacterial cells by measuring red fluorescence at 8 ug/ml incubated for 4 hrs by DiOC2(3) dye based flow cytometry analysis (reference value: 63.8%); format: cell membranes; details: dose 8.0 µg/ml
[37] = Hemolytic activity in human RBC incubated for 1 hr by microplate reader method; format: toxicity, cell-based, Erythrocyte; details: human red blood cells (erythrocytes)
Staphylococcus aureus [38] = test: Antibacterial activity against vancomycin-resistant Staphylococcus aureus 4 incubated for 16 to 18 hrs by broth dilution method; format: functional; details: time 16-18 hrs
[39] = Selectivity index, ratio of HC50 for hemolytic activity in human RBC to MIC for antibacterial activity against Staphylococcus aureus; format: toxicity; details: human red blood cells (erythrocytes), read-out: Selectivity Index
[40] = Cytotoxicity against MDCK cells assessed as cell viability at 0.5 to 4 ug/ml incubated for 24 hrs by alamar blue assay relative to control; format: toxicity, cell-based, Canis lupus familiaris; details: dog, at 0.5 to 4 µg/mL, dose 0.5-4 µg/ml, read-out: Activity
Staphylococcus aureus [41] = test: Induction of resistance development in methicillin-resistant Staphylococcus aureus ATCC 33591 measured after 10 days by broth dilution method; format: functional; details: time 10.0 day
[42] = Selectivity index, ratio of HC50 for hemolytic activity in human RBC to MIC for antibacterial activity against methicillin-resistant Staphylococcus aureus ATCC 33591; format: toxicity; details: human red blood cells (erythrocytes), read-out: Selectivity Index
Enterococcus faecium [43] = test: Antibacterial activity against vancomycin-resistant Enterococcus faecium 903 incubated for 16 to 18 hrs by broth dilution method; format: functional; details: time 16-18 hrs
[44] = Selectivity index, ratio of HC50 for hemolytic activity in human RBC to MIC for antibacterial activity against methicillin-resistant Staphylococcus aureus R3890; format: toxicity; details: human red blood cells (erythrocytes), read-out: Selectivity Index
Cell membrane [45] = test: Induction of cytoplasmic membrane depolarization in methicillin-resistant Staphylococcus aureus ATCC 33591 assessed as increase in fluorescence intensity measured after 24 min by DiSC3-5 dye based fluorescence method; details: dose 4-16 µg/ml
Staphylococcus aureus [46] = test: Antibiofilm activity against methicillin-resistant Staphylococcus aureus ATCC 33591 assessed as log reduction in bacterial burden in biofilm at 32 ug/ml incubated for 18 hrs; format: functional; details: dose 32 µg/ml
Staphylococcus aureus [47] = test: Bactericidal activity against vancomycin-resistant Staphylococcus aureus 1 assessed as reduction in bacterial count at 16 ug/ml observed after 12 hrs by time killing analysis; format: functional; parameters: scale not given: the % may be the effect or the level left; details: dose 16 µg/ml

Compound: N#CC(C#N)=NNc1cccc(Cl)c1
- Ratio (Cell membrane [1]): 1.1
- Activity (Cell membrane [2]): 49.1%
- Activity (Cell membrane [3]): 47.8%

Compound: COLISTIN
- MIC (Escherichia coli): 1 µg/mL

Compound: CCCCNc1nc(NCCCC)nc(N2CC3CC(C2)CN(c2nc(NCCCC)nc(NCCCC)n2)C3)n1
- Activity (Staphylococcus aureus [4]): Dose-Dependent Effect
- MIC (Staphylococcus aureus [5]): 0.5 µg/mL (≈ 0.879 µM)
- selectivity ratio [6]: 800
- log(activity) (Staphylococcus aureus [7]): 3.5
- MIC (Escherichia coli): 64 µg/mL (≈ 113 µM)
- Activity (Staphylococcus aureus [8]): 40%
- MIC (Staphylococcus aureus [9]): 0.5 µg/mL (≈ 0.879 µM)
- Activity (Cell membrane [10]): Active
- selectivity ratio [11]: 400
- MIC (Staphylococcus aureus [12]): 0.5 µg/mL (≈ 0.879 µM)
- Activity (Staphylococcus aureus [13]): 100%
- EC50 at 24 h [14]: 21 µg/mL (≈ 36.9 µM)
- hemolysis at 1 h [15]: 0%
- MIC (Staphylococcus aureus [16]): 0.5 µg/mL (≈ 0.879 µM)
- log(activity) (Staphylococcus aureus [17]): ~2
- MIC (Enterococcus faecium [18]): 0.25 µg/mL (≈ 0.44 µM)
- MIC (Enterococcus faecium [19]): 1 µg/mL (≈ 1.76 µM)
- MIC [20]: 4 µg/mL (≈ 7.03 µM)
- MIC (Staphylococcus aureus [21]): 0.5 µg/mL (≈ 0.879 µM)
- Activity (Cell membrane [22]): Dose-Dependent Effect
- selectivity ratio [23]: 800
- selectivity ratio [24]: 800
- selectivity ratio [25]: 800
- selectivity ratio [26]: 800
- Activity (Staphylococcus aureus [27]): 50%
- selectivity ratio [28]: 400
- MIC (Staphylococcus aureus [29]): 0.5 µg/mL (≈ 0.879 µM)
- log(activity) (Staphylococcus aureus [30]): >5
- Activity (Cell membrane [31]): 43.2%
- Activity (Staphylococcus aureus [32]): Active
- Activity (Staphylococcus aureus [33]): 3 um
- selectivity ratio [34]: 800
- Ratio (Cell membrane [35]): 1.1
- Activity (Cell membrane [36]): 47.8%
- HC50 at 1 h [37]: 810 µg/mL
- MIC (Staphylococcus aureus [38]): 0.5 µg/mL (≈ 0.879 µM)
- selectivity ratio [39]: 400
- viability at 24 h [40]: > 95%
- Activity (Staphylococcus aureus [41]): inactive
- selectivity ratio [42]: 800
- MIC (Enterococcus faecium [43]): 1 µg/mL (≈ 1.76 µM)
- selectivity ratio [44]: 800
- Activity (Cell membrane [45]): Dose-Dependent Effect
- log(activity) (Staphylococcus aureus [46]): 1.7
- Activity (Staphylococcus aureus [47]): 100%
